Reference: US9073880B2, “2-(2-phenylethenyl) 1,3-benzodiazepine derivatives useful for the treatment of cancer” (Yissum Research Development Company of the Hebrew …, priority 2010, dated 2015)

Assays:
Akt/PKB pathway = test: IGF1-induced Akt/PKB activation in A375 cells (Example 5); type: cell-based, human
Experimental: (§1) The effect of compound 5 on IRS1 & IRS2 levels and its effect on IGF1-induced Akt/PKB activation and apoptosis in melanoma A375 cells were tested. Cells were seeded in 6-well plates (150,000 A375 cells/well) and 24 hours later medium was replaced by serum-free medium (RPMI supplemented with 100 units/ml penicillin and 100 μg/ml streptomycin), […], and then stimulated for 5 minutes with 50 ng/ml IGF-1, washed twice with PBS and lysed by boiling sample buffer (10% glycerol, 50 mM Tris-HCl, pH 6.8, 3% SDS, and 5% β-mercaptoethanol). Equal amounts of protein per lane were separated by 8% SDS-PAGE and transferred to a nitrocellulose membrane (Sartorius AG). To detect the inhibition of the Akt/PKB activation, phosphorylated proteins were immunoblotted with anti-phospho(T308)Akt (pT308-PKB) and anti-phospho-Tuberin/TSC2 (pTuberin) antibodies. To visualize cell death induced by compound 5, the intact and the cleaved PARP were immunoblotted with anti-PARP antibody. The changes in the levels of IRS1 and IRS2 were detected with specific antibodies. Detection was performed with horseradish peroxidase-conjugated secondary antibody using the ECL system. Blots were then stripped of antibodies, blocked with TBST with 5% low fat milk and re-probed with antibodies detecting both the phosphorylated and the non-phosphorylated Akt/PKB. […]

[1] = tested on: human melanoma A375 cells; test: Cell death (PARP cleavage) in A375 cells; type: cell-based
Experimental: as §1

[2] = tested on: human ovary A2780 tumor cells; test: Survival of nude mice bearing intraperitoneal human ovarian A2780 tumors; type: in vivo; conditions: for median survival time: IV, control 28 days
Experimental: In order to determine the effect of the compounds of the present invention on the growth and spread of tumors in-vivo, the compounds were administered to nude mice bearing human ovarian cancer. […] A model of peritoneal carcinomatosis formation, involving intraperitoneal administration of human ovary A2780 tumor cells, was used.
Two million human ovarian A2780 cells were injected to the peritoneum of 4-5 weeks old female nude mice. A week later, treatments with compound 3 or vehicle were initiated. Compound 3 was administered IV, daily at a dose of 3 mg/kg or weekly at a dose of 12 mg/kg for the time periods indicated in FIG. 7. The control group was weekly administered (IV) with the vehicle (20% 2-hydroxypropyl-b-cyclodextrin). Each group included 10 mice.

IGF-1R = biological target: T1, IGF-1R (Homo sapiens, UniProt P08069); test: IGF1-induced IGF-1R auto-phosphorylation in MCF7 cells (western blot); type: cell-based; conditions: 10 μM, FIG. 3
T1 construct: endogenous in cells; host or cells: MCF7 human breast cancer cells
T1 sequence (P08069 31-1367): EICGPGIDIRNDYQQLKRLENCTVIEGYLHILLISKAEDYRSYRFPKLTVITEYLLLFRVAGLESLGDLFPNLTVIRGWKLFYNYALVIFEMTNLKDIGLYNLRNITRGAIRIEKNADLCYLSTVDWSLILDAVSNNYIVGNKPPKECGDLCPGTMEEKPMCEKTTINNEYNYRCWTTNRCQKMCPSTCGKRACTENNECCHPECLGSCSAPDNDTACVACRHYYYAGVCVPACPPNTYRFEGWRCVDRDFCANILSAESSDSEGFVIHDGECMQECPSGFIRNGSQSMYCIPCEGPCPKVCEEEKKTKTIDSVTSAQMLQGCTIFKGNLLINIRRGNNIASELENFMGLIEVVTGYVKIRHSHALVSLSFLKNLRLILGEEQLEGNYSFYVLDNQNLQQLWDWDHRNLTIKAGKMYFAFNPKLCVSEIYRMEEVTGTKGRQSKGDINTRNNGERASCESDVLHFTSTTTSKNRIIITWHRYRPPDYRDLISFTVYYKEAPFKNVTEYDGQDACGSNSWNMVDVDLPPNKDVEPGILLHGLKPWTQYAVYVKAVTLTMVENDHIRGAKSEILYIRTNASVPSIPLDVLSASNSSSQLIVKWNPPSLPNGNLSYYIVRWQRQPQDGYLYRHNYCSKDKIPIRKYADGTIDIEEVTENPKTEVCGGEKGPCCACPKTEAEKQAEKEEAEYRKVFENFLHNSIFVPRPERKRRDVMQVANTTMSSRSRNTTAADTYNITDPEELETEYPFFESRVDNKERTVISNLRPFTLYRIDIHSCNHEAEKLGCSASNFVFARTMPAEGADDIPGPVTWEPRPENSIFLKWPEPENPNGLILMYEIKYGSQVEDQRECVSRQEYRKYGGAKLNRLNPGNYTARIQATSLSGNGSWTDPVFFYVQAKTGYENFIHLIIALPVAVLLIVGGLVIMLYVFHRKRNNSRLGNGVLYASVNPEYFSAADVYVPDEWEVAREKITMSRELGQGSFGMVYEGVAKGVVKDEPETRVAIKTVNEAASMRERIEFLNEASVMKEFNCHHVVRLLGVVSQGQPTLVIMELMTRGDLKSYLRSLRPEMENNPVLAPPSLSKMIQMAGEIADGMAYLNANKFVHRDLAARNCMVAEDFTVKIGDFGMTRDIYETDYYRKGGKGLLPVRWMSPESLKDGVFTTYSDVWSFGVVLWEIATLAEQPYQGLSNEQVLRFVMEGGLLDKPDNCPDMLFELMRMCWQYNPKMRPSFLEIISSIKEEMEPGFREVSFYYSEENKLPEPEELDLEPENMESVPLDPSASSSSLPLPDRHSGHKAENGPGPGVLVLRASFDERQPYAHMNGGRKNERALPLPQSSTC
Experimental: (§2) Tyrosine autophosphorylation of the β-subunit of IGF-1R as well as downstream signaling induced by IGF-1R were assayed in human breast cancer MCF7 cells and in melanoma A375 cells. Cells were seeded in 6-well plates (250,000 A375 cells/well and 300,000 MCF7 cells/well) and 24 hours later medium was replaced by serum-free medium (RPMI supplemented with 100 units/ml penicillin and 100 μg/ml streptomycin). MCF7 cells were exposed for 48 hr to compound 3 at 10 μM concentration, and then stimulated for 5 minutes with 50 ng/ml IGF-1, washed twice with PBS and lysed by boiling sample buffer (10% glycerol, 50 mM Tris-HCl, pH 6.8, 3% SDS, and 5% (3-mercaptoethanol). Equal amounts of protein per lane were separated by 8% SDS-PAGE and transferred to a nitrocellulose membrane (Sartorius AG). Phosphorylated proteins were immunoblotted with anti-phosphoIGF-1R (pIGF-1R), anti-phosphotyrosine-IRS1 (pY-IRS I) and anti-phospho(T308)Akt (pPKB) antibodies. Detection was performed with horseradish peroxidase-conjugated secondary antibody using the ECL system. Blots were then stripped of antibodies, blocked with TBST with 5% low fat milk and re-probed with antibodies detecting both the phosphorylated and the non-phosphorylated corresponding proteins e.g. IGF-1Rβ, IRS1 and PKB.

PKB = test: IGF1-induced PKB activation in MCF7 cells (western blot); type: cell-based, human; conditions: 10 μM, 48 hr, 50 ng/ml IGF-1 5 minutes, FIG. 3
Experimental: as §2

IRS1 and IRS2 = IRS1 and IRS2 serine phosphorylation in A375 cells (western blot); type: cell-based, human; conditions: melanoma A375 cells treated 4 hr, 1 and 3 μM; FIG. 4
Experimental: as §2, with “Blots were then stripped of antibodies, blocked with TBST with 5% low fat milk and re-probed with antibodies detecting both the phosphorylated and the non-phosphorylated corresponding proteins e.g. IGF-1Rβ, IRS1 and PKB.” left out
In addition, lysates of human melanoma A375 cells were prepared from cells exposed to compound 3 at 1 and 3 μM concentrations in serum-free medium. […] In this experiment the phosphorylated form of IRS1 on Serine-636/639 and the levels of IRS2 were detected as well.

Row | SMILES | IGF1-induced activation of the Akt/PKB pathway (Akt/PKB pathway; 3 μM, 48 hr, 50 ng/ml IGF-1 5 minutes, FIG. 6B) | IGF1-induced activation of PKB/Akt after washout (Akt/PKB pathway; 5 μM for 4 hr, washed, 24 hr after washout, FIG. 6C) | cell death (PARP cleavage) ([1]; 3 μM, 48 hr, FIG. 6A, 6B) | cell death (PARP cleavage) after washout ([1]; 5 μM for 4 hr, 24 hr following washout, FIG. 6C) | median survival time compared to Cisplatin and Sunitinib ([2]; 50 mg/kg daily IV vs Cisplatin 3 mg/kg ip 3 times a week for two weeks and Sunitinib 40 mg/kg daily PO, data not shown) | median survival time ([2]; daily, 3 mg/kg, FIG. 7) | median survival time ([2]; weekly, 12 mg/kg, FIG. 7) | survival compared to control mice ([2]; intravenous treatment, 3 mg/kg daily or 12 mg/kg weekly, FIG. 7) | IGF1-induced auto-phosphorylation of IGF-1R (IGF-1R; 48 hr, 50 ng/ml IGF-1 5 minutes) | duration of the inhibitory effect (IGF-1R) | IGF1-induced activation of the downstream signaling component PKB (PKB) | IRS1 and IRS2 serine phosphorylation (IRS1 and IRS2)
1 | O=c1c(O)cc2cnc(/C=C/c3ccc(O)c(O)c3Br)sc-2c1O [Compound 5] | blocked the IGF1-induced activation of the Akt/PKB pathway | blocked | induced cell death (PARP cleavage) | enough to trigger a process which leads to cell death |  |  |  |  |  |  |  | 
2 | O=c1c(O)cc2cnc(/C=C/c3cc(O)c(O)c(Br)c3)sc-2c1O [Compound 3] |  |  |  |  | preferable median survival time | over 81 days | over 81 days | dramatically increased survival | significantly inhibited | more than 48 hr | significantly inhibited | induction of IRS1 and IRS2 serine phosphorylation
